# Target: T1, selenophosphate synthetase (SPS) (Escherichia coli, UniProt P16456, E197D)
# T1 construct: gene selD; full-size selD from E. coli BL21-Gold (DE3), recombinant
# Test: competitive displacement of TNP-ATP (fluorescence)
# Type: binding
# T1 sequence (P16456 whole entry E197D): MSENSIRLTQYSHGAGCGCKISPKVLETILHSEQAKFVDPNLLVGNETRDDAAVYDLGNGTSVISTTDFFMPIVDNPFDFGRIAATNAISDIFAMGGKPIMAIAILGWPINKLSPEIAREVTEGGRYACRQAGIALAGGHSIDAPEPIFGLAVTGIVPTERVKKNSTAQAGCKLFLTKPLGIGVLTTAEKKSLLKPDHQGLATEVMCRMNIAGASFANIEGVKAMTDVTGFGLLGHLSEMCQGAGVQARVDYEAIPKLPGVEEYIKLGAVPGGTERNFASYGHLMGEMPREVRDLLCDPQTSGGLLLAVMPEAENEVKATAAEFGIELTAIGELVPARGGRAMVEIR
smiles,measurement,value
Nc1ncnc2c1ncn2[C@@H]1O[C@H](COP(=O)(O)OP(=O)(O)OP(=O)(O)O)[C@@H](O)[C@H]1O [ATP],EC50,450 µM
